Experiments:
[1] = test system: HCT-116 (human colon) cells; test: Cell-Titer Glo Cell Growth Inhibition Assay; format: cell-based; conditions: HCT-116 cells, 72 h incubation, CellTiter-Glo, read-out: HCT116 IC50
Protocol: A549-L (human lung), Colo 205 (human colon), HCT-116 (human colon), HT29 (human colon), MX-1 (human breast), SKOV3 (human ovary) and P388 (murine leukemia) cell lines were cultured in RPM11640 containing 10% fetal bovine serum at 37° C. in a 5% CO2 incubator. Cell lines were split into T75 flasks (Falcon #353136) two to three days prior to assay set up at density which yields approximately 70-80% confluency at time of harvest for assay. Cells were harvested using 0.25% trypsin with EDTA (Glibco/Invitrogen #25200-056), Cell counts were performed on cell suspensions using Trypan Blue exclusion staining, cells were then plated in 105 µL of culture media per well at the following densities in 96 well Costar #3916 black flat bottom plates: A549-L 500 cells/well, Colo205 500 cells/well, HCT-116 500 cells/well, HT29 500 cells/well, MX-1 500 cells/well, SKOV3 500 cells/well and P388 250 cells/well. All plates were placed at 5% CO2 37° C. overnight and then test compounds were added the following day. One plate of each cell type was treated with CellTiter-Glo (Promega #G7573) for a day 0 proliferation measurement and read as described below. The test compounds were prepared in clear U bottom polypropylene 96 well plates (Falcon #35-1190 with consecutive two fold dilutions. 9 uL of these dilutions was added into each well of the cell plates. The final concentration of DMSO in all wells was 0.15%. Cells were incubated at 37° C., 5% CO2 for 72 h. Following 72 h of incubation with compounds each plate was developed and read. CellTiter-Glo reagent was added to assay plates using a volume equivalent to the cell culture volume in the wells. Plates were shaken for approximately 2 min and incubated at rt for approximately 15 min and the chemiluminescent signal was read on the Victor V or Envison 2100 reader. […] Concentration of compound that inhibited 50% of cell growth (IC50) was analyzed by 4 or 6 parameter fit of data using XLfit, value of no cell addition was substracted from all samples for background.

PLK1 kinase domain = molecular target: T1, PLK1 kinase domain (Homo sapiens, UniProt P53350); test: Assay for Inhibition of PLK1 (SPA, 33P-ATP); format: biochemical; conditions: 2 nM PLK1 kinase domain, 1 μM ATP, 22° C.; read-out: PLK1 pIC50 (converted)
T1 construct: made in house; host or cells: baculovirus infected T. ni cells
T1 sequence (P53350 21-346): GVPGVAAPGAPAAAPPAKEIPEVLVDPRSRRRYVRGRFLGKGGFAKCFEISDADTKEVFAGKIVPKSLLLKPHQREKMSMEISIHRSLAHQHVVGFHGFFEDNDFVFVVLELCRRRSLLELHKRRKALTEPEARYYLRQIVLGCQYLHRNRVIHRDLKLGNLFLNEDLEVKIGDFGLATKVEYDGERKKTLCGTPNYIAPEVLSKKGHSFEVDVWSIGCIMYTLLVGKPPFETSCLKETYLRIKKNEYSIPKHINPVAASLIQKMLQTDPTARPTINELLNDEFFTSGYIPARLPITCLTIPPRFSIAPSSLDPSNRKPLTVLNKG
Protocol: A. Preparation of 6× N-Terminal His-Tagged PLK Kinase Domain
All procedures were performed at 4° C. Cells were lysed in 50 mM HEPES, 200 mM NaCl, 50 mM imidazole, 5% glycerol; pH 7.5. The homogenate was centrifuged at 14K rpm in a SLA-1500 rotor for 1 hr and the supernatant filtered through a 1.2 micron filter. The supernatant was loaded onto a Nickel chelating Sepharose (Amersham Pharmacia) column and washed with lysis buffer. Protein was eluted using 20%, 30% and 100% buffer B steps where buffer B was 50 mM HEPES, 200 mM NaCl, 300 mM imidazole, 5% glycerol; pH 7.5. Fractions containing PLK were determined by SDS-PAGE. Fractions containing PLK were diluted five-fold with 50 mM HEPES, 1 mM DTT, 5% glycerol; pH 7.5, then loaded on an SP Sepharose (Amersham Pharmacia) column. After washing the column with 50 mM HEPES, 1 mM DTT, 5% glycerol; pH 7.5, PLK was step eluted with 50 mM HEPES, 1 mM DTT, 500 mM NaCl; 5% glycerol; pH 7.5. PLK was concentrated using a 10 kDa molecular weight cutoff membrane and then loaded onto a Superdex 200 gel filtration (Amersham Pharmacia) column equilibrated in 25 mM HEPES, 1 mM DTT, 500 mM NaCl, 5% glycerol; pH 7.5. Fractions containing PLK were determined by SDS-PAGE. PLK was pooled, aliquoted and stored at −80° C. Samples were quality controlled using mass spectrometry, N-terminal sequencing and amino acid analysis.
B. Enzyme Activity +/− Inhibitors was Determined as Follows:
All measurements were obtained under conditions where signal production increased linearly with time and enzyme. Test compounds were added to white 384-well assay plates (0.1 μL for 10 μL and some 20 μL assays, 1 μL for some 20 μL assays) at variable known concentrations in 100% DMSO. DMSO (1-5% final, as appropriate) and EDTA (65 mM in reaction) were used as controls.
Reaction Mix (10 or 20 μL) was quickly added to each well immediately following addition of enzyme via automated liquid handlers and incubated 1-1.5 h at 22° C. The 20 μL enzymatic reactions were stopped with 50 μL of stop mix (50 mM EDTA, 4.0 mg/mL Streptavidin SPA beads in Standard Dulbecco's PBS (without Mg^2+ and Ca^2+), 50 μM ATP) per well. The 10 μL reactions were stopped with 10 μL of stop mix (50 mM EDTA, 3.0 mg/mL Streptavidin-coupled SPA Imaging Beads (“LeadSeeker”) in Standard Dulbecco's PBS (without Mg^2+ and Ca^2+), 50 μM ATP) per well. Plates were sealed with clear plastic seals, spun at 500×g for 1 min or settled overnight, and counted in Packard TopCount for 30 seconds/well (regular SPA) or imaged using a Viewlux imager (LeadSeeker SPA). Signal above background (EDTA controls) was converted to percent inhibition relative to that obtained in control (DMSO-only) wells.

IC50 [1]	IC50 (PLK1 kinase domain)	Compound
< 500 nM	< 100 nM	C[C@@H](Oc1cc(-n2cnc3cc(-c4ccc(NCCN5CCOCC5)nc4)ccc32)sc1C(N)=O)c1ccccc1Cl [Example 32, 3-{[(1R)-1-(2-chlorophenyl)ethyl]oxy}-5-[5-(6-{[2-(4-morpholinyl)ethyl]amino}-3-pyridinyl)-1H-benzimidazol-1-yl]-2-thiophenecarboxamide]
< 500 nM	< 100 nM	CNCCNc1ccc(-c2ccc3c(c2)ncn3-c2cc(O[C@H](C)c3ccccc3C(F)(F)F)c(C(N)=O)s2)cn1 [Example 26, 5-[5-(6-{[2-(methylamino)ethyl]amino}-3-pyridinyl)-1H-benzimidazol-1-yl]-3-({(1R)-1-[2-(trifluoromethyl)phenyl]ethyl}oxy)-2-thiophenecarboxamide]
< 500 nM	< 100 nM	C[C@@H](Oc1cc(-n2cnc3cc(-c4ccc(N(C)CCCN(C)C)nc4)ccc32)sc1C(N)=O)c1ccccc1Cl [Example 33, 3-{[(1R)-1-(2-chlorophenyl)ethyl]oxy}-5-(5-[6-[[3-(dimethylamino)propyl](methyl)amino]-3-pyridinyl]-1H-benzimidazol-1-yl)-2-thiophenecarboxamide]
< 500 nM	< 100 nM	C[C@@H](Oc1cc(-n2cnc3cc(-c4ccc(NCCCN5CCN(C)CC5)nc4)ccc32)sc1C(N)=O)c1ccccc1Cl [Example 31, 3-{[(1R)-1-(2-chlorophenyl)ethyl]oxy}-5-[5-(6-{[3-(4-methyl-1-piperazinyl)propyl]amino}-3-pyridinyl)-1H-benzimidazol-1-yl]-2-thiophenecarboxamide]
< 500 nM	< 100 nM	C[C@@H](Oc1cc(-n2cnc3cc(-c4ccc(NCCCN(C)C)nc4)ccc32)sc1C(N)=O)c1ccccc1Cl [Example 29, 3-{[(1R)-1-(2-chlorophenyl)ethyl]oxy}-5-[5-(6-{[3-(dimethylamino)propyl]amino}-3-pyridinyl)-1H-benzimidazol-1-yl]-2-thiophenecarboxamide]

Continued, molecule first:

Compound	IC50 [1]	IC50 (PLK1 kinase domain)
C[C@@H](Oc1cc(-n2cnc3cc(-c4ccnc(NCCN)c4)ccc32)sc1C(N)=O)c1ccccc1C(F)(F)F [Example 6, 5-(5-{2-[(2-Aminoethyl)amino]-4-pyridinyl}-1H-benzimidazol-1-yl)-3-([(1R)-1-[2-(trifluoromethyl)phenyl]ethyl]oxy)-2-thiophenecarboxamide]	< 500 nM	< 100 nM
C[C@@H](Oc1cc(-n2cnc3cc(-c4cnc(NCCN(C)C)nc4)ccc32)sc1C(N)=O)c1ccccc1Cl [Example 19, 3-{[(1R)-1-(2-Chlorophenyl)ethyl]oxy}-5-[5-(2-{[2-(dimethylamino)ethyl]amino}-5-pyrimidinyl)-1H-benzimidazol-1-yl]-2-thiophenecarboxamide]	< 500 nM	< 100 nM
CNCCNc1cc(-c2ccc3c(c2)ncn3-c2cc(O[C@H](C)c3ccccc3C(F)(F)F)c(C(N)=O)s2)ccn1 [Example 2, 5-[5-(2-{[2-(Methylamino)ethyl]amino}-4-pyridinyl)-1H-benzimidazol-1-yl]-3-({(1R)-1-[2-(trifluoromethyl)phenyl]ethyl}oxy)-2-thiophenecarboxamide]	< 500 nM	< 100 nM
C[C@@H](Oc1cc(-n2cnc3cc(-c4ccnc(NC[C@@H](O)CO)c4)ccc32)sc1C(N)=O)c1ccccc1Cl [Example 13, 3-{[(1R)-1-(2-chlorophenyl)ethyl]oxy}-5-[5-(2-{[(2R)-2,3-dihydroxypropyl]amino}-4-pyridinyl)-1H-benzimidazol-1-yl]-2-thiophenecarboxamide]	< 500 nM	< 100 nM
C[C@@H](Oc1cc(-n2cnc3cc(-c4ccnc(NC(=O)CN(C)C)c4)ccc32)sc1C(N)=O)c1ccccc1C(F)(F)F [Example 3, 5-(5-{2-[(N,N-dimethylglycyl)amino]-4-pyridinyl}-1H-benzimidazol-1-yl)-3-({(1R)-1-[2-(trifluoromethyl)phenyl]ethyl}oxy)-2-thiophenecarboxamide]	< 500 nM	< 100 nM
C[C@@H](Oc1cc(-n2cnc3cc(-c4ccnc(NCCCN5CCN(C)CC5)c4)ccc32)sc1C(N)=O)c1ccccc1C(F)(F)F [Example 9, 5-[5-(2-{[3-(4-Methyl-1-piperazinyl)propyl]amino}-4-pyridinyl)-1H-benzimidazol-1-yl]-3-({(1R)-1-[2-(trifluoromethyl)phenyl]ethyl}oxy)-2-thiophenecarboxamide]	< 500 nM	< 100 nM
C[C@@H](Oc1cc(-n2cnc3cc(-c4ccnc(NC(=O)CN)c4)ccc32)sc1C(N)=O)c1ccccc1C(F)(F)F [Example 4, 5-{5-[2-(Glycylamino)-4-pyridinyl]-1H-benzimidazol-1-yl}-3-({(1R)-1-[2-(trifluoromethyl)phenyl]ethyl}oxy)-2-thiophenecarboxamide]	< 500 nM	< 100 nM
C[C@@H](Oc1cc(-n2cnc3cc(-c4ccnc(N(C)CCCN(C)C)c4)ccc32)sc1C(N)=O)c1ccccc1C(F)(F)F [Example 8, 5-(5-{2-[[3-(Dimethylamino)propyl](methyl)amino]-4-pyridinyl}-1H-benzimidazol-1-yl)-3-({(1R)-1-[2-(trifluoromethyl)phenyl]ethyl}oxy)-2-thiophenecarboxamide]	< 500 nM	< 100 nM
CC(C)[C@H](N)C(=O)OCCNc1cc(-c2ccc3c(c2)ncn3-c2cc(O[C@H](C)c3ccccc3Cl)c(C(N)=O)s2)ccn1 [Example 15, 2-({4-[1-(5-(Aminocarbonyl)-4-{[(1R)-1-(2-chlorophenyl)ethyl]oxy}-2-thienyl)-1H-benzimidazol-5-yl]-2-pyridinyl}amino)ethyl L-valinate]	< 500 nM	< 100 nM
C[C@@H](Oc1cc(-n2cnc3cc(-c4cnc(NCCCN5CCN(C)CC5)nc4)ccc32)sc1C(N)=O)c1ccccc1Cl [Example 20, 3-{[(1R)-1-(2-Chlorophenyl)ethyl]oxy}-5-[5-(2-{[3-(4-methyl-1-piperazinyl)propyl]amino}-5-pyrimidinyl)-1H-benzimidazol-1-yl]-2-thiophenecarboxamide]	< 500 nM	< 100 nM
C[C@@H](Oc1cc(-n2cnc3cc(-c4cnc(N(C)CCN(C)C)nc4)ccc32)sc1C(N)=O)c1ccccc1Cl [Example 21, 3-{[(1R)-1-(2-chlorophenyl)ethyl]oxy}-5-(5-{2-[[2-(dimethylamino)ethyl](methyl)amino]-5-pyrimidinyl}-1H-benzimidazol-1-yl)-2-thiophenecarboxamide]	< 500 nM	< 100 nM
